Reference: PMC12686243, “Synthesis and preclinical evaluation of FAP-targeting radiotracers for PET and optical imaging” (EJNMMI Radiopharmacy and Chemistry, 2025)

Assays:
[1] = molecular target: T1, hFAPα, recombinant protein (Homo sapiens, UniProt Q12884); test: fluorometric enzyme inhibition assay for FAP; assay type: biochemical; details: Morrison equation for tight binding inhibitors; substrate Ala-Pro-AMC; mean ± SD
T1 construct: purchased
T1 sequence (Q12884 1-760): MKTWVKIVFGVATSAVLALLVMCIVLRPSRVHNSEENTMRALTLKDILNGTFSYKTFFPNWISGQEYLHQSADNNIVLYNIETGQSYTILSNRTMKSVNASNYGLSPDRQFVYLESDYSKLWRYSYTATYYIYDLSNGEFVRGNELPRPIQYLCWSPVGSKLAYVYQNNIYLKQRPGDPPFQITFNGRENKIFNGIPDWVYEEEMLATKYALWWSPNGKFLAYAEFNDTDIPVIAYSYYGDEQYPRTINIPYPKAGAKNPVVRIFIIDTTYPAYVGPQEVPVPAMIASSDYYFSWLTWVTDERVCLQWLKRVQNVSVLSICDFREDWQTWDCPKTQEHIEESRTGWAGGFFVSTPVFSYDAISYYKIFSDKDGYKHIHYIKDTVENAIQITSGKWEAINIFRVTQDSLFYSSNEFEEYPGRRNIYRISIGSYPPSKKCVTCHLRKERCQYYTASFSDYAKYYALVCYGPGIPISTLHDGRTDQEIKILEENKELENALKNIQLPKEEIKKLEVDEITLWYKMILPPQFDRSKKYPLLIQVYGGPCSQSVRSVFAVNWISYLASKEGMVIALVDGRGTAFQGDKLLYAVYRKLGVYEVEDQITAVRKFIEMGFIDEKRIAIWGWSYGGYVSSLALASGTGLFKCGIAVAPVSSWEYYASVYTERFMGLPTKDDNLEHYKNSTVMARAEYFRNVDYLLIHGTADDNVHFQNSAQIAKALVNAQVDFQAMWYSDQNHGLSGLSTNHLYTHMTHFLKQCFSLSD
Method: Affinity towards FAP was tested using a commercially available fluorometric assay. At the day of the experiment, all tested compounds were diluted in assay buffer (DPP assay buffer, BPS Bioscience, San Diego, CA, USA,) in a 1:1 dilution series, resulting in eleven concentrations, ranging from 2000 nM to 1.950 nM, equal to 200 nM to 0.195 nM per well. The substrate Ala-Pro-AMC (BPS Bioscience, concentration per well: 5 μM, Km = 244 μM (Edosada et al. [2006])) was pipetted along with the inhibitor into a 96-well plate. Subsequently, the enzyme (hFAPα, recombinant protein) was dissolved in assay buffer and added to the wells. The final concentration of DMSO per well was 0.2%. The 96-well plate was immediately loaded into a multimode plate reader (Biotek Cytation 5, Agilent, Santa Clara, CA, USA). The fluorescence intensity for each well was measured over a time course of 30 min with measurement intervals of 15 s, an excitation wavelength of 360 ± 20 nm and an emission wavelength of 450 ± 20 nm. Data (relative fluorescence units, RFU) over the total measurement time was analyzed by linear regression. The slope of the resulting graphs was analyzed over the inhibitor concentration. The enzyme inhibition constant Ki was calculated using the Morrison equation for tight binding inhibitors (Williams and Morrison [1979]). […]

[2] = molecular target: T2, human recombinant dipeptidylpeptidase IV (Homo sapiens, UniProt P27487); test: fluorometric enzyme inhibition assay for DPPIV; assay type: biochemical
T2 construct: purchased Cayman Chemical
T2 sequence (P27487 whole entry): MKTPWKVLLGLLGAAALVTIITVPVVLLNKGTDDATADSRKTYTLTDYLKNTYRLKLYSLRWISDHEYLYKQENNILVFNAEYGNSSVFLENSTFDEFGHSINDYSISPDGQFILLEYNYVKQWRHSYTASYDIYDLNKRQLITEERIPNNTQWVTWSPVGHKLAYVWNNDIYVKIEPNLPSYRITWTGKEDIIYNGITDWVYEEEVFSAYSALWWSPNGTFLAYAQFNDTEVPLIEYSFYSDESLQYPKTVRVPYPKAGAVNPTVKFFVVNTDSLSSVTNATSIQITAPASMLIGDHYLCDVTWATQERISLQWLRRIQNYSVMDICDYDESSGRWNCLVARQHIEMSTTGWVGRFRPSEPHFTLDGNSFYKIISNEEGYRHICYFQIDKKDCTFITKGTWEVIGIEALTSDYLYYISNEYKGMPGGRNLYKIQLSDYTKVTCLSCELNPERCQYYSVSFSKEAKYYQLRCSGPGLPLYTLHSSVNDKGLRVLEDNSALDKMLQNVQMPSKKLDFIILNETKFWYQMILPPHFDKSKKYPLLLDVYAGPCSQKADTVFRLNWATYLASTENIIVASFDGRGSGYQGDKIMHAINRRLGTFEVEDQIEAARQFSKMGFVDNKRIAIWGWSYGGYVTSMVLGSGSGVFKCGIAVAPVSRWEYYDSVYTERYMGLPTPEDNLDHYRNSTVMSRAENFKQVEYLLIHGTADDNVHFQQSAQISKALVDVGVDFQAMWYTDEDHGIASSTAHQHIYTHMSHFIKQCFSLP
Method: The affinity towards DPPIV was determined using a commercially available inhibitor screening assay kit (Cayman Chemical, USA). The assay was performed according to the manufacturer’s instructions, and the data was analyzed as described above.

[3] = molecular target: T3, hFAP (vital hFAP-HT1080 cells) (Homo sapiens, UniProt Q12884); test: real-time binding (LigandTracer) to vital hFAP-HT1080 cells; details: fluorescent vs radioactive detection
T3 construct: expressed in transfected cells; host or cells: HT1080 (human fibrosarcoma), lentiviral transduction
T3 sequence (Q12884 1-760): T1 sequence (Q12884 1-760)
Method: To determine binding kinetics (association rate constant ka, dissociation rate constant kd, and thermodynamic dissociation constant KD), real-time assay systems (LigandTracer Yellow/White for radioactivity and Green with Red/NIR + and NIR + + /IR detectors for fluorescence; Ridgeview Instruments AB, Sweden) were utilized. In a 100 mm petri dish, cells or tissue sections in medium (3–4 mL total volume), are located on one side, while the radioactive or fluorescent signal is detected on the opposite, elevated side. Rotation on an inclined base in set intervals (30 s) allows continuous measurement of signal in the target (cells/tissue) against background area (no cells/tissue). Experiments were performed at room temperature, using CO2-independent medium, usually with 0.5–1% w/v bovine serum albumin, (#1ETA, Carl Roth, Germany). Association was determined through incubation with two distinct concentrations (between 1–5 and 4.5–10 nM, 60 min each, additive) for each compound. For that purpose, the same ligand preparation was typically employed for radioactive and fluorescent detection. This was followed by replacement with fresh medium and observation of dissociation for at least 2 h. Additionally, the dissociation rate constant was further investigated beyond 6 h, either using fluorescent detection or via gallium-67 (t1/2: 78.3 h). This approach provides reliable kinetic measurements in a 1:1 interaction setting, as previously shown (Onell and Andersson [2005]).
Binding data was evaluated using TraceDrawer (1.9.2, Ridgeview Instruments AB, Sweden). Traces were imported, potential spikes (> 100% sudden signal increases over previous datapoints) removed and each trace was normalized to its own baseline (= 0%) and highest value (= 100%, typically at the end of the second association phase). This allows comparing data across experiments and ultimately global fitting, without differences, e.g. of molar activity, affecting it. Typically, at least 3 individual traces per ligand, substrate and modality were recorded. Data was fitted in TraceDrawer using a 1:1 interaction model, with/without accounting for bulk effect. A 1:1 interaction is the simplest model, as it describes the binding of a ligand at a constant concentration to the target, with each one molecule of ligand binding to one molecule of target.

[4] = test system: hFAP-HT1080 and WT-HT1080 xenografts; test: in vivo fluorescence imaging of xenograft-bearing mice; design: species or system nude mice
Source text: Female athymic NMRI-nude mice (Rj:NMRI-Foxn1nu, Janvier Labs, France or Charles River, Germany) between 8 and 20 weeks of age were used. Subsequently, the prepared cells (1.0–2.0 × 10^6 hFAP/WT-HT1080 per animal) were subcutaneously injected into the right and left thigh, respectively. Xenograft tissue for real-time binding experiments was derived from animals injected with both target-positive and negative cells, however only showing growth of one tumor entity. When approaching endpoints, mice were anesthetized and euthanized. The tumor was quickly removed, frozen in − 45 °C 2-methylbutane and stored in sealed tubes at − 80 °C.
Optical imaging was performed using a multimodal IVIS-CT (Perkin Elmer, USA). Compounds were injected [0.09 mg/kg (n = 1)/0.33 mg/kg (n = 3) for NODAGA-FAP647; 0.17 mg/kg (n = 3) for NODAGA-FAP800, diluted in 150 µL of sterile 0.9% NaCl solution] into the lateral tail vein, either directly or via catheter. Fluorescence imaging started ~ 2 min post injection for 2–3 h, with 1 min, 3–5 min and 10 min intervals, along with a white-light image. Additional scans were performed after 24 h and, if applicable, later. The fluorescence of the respective fluorophore was captured (NODAGA-FAP647: λEx/Em = 640/680 nm, NODAGA-FAP800: λEx/Em = 745/800 nm). Emitted fluorescence intensity was analyzed (Perkin Elmer, Living Image 4.7.4) in raw data images.

[5] = molecular target: T4, hFAP (hFAP-HT1080 xenograft tissue sections) (Homo sapiens, UniProt Q12884); test: real-time binding to frozen hFAP-HT1080 xenograft tissue sections; details: ^67Ga-labeled
T4 construct: expressed in transfected cells; host or cells: HT1080 (human fibrosarcoma), lentiviral transduction
T4 sequence (Q12884 1-760): T1 sequence (Q12884 1-760)
Method: HT1080 cells were chosen as cellular and xenograft models, due to their similarity to FAP expressing fibroblasts and its origin (fibrosarcoma). For that purpose, HT1080 wild-type cells (WT-HT1080; European Collection of Authenticated Cell Cultures, ECACC, United Kingdom) were used as control. Cells were cultured in DMEM with GlutaMax (#31966021, Gibco), supplemented with 10% v/v fetal bovine serum (#S0615 Sigma Aldrich, Germany), 1% penicillin/streptomycin (#15140–122, Gibco, USA), 1% Non-essential amino acids under normoxic (5% CO2; 37 °C) conditions. Upon reaching ~ 90% confluency, cells were passaged. Typically, cultures were discarded after ~ 20 passages. […] Prior to in vitro experiments, cells were washed, trypsinized (0.05% Trypsin–EDTA, Gibco, USA), taken up in medium and an aliquot was counted using a CASY1 cell counter (Model TT, Schaerfe System, Reutlingen, Germany). […]
To determine binding kinetics (association rate constant ka, dissociation rate constant kd, and thermodynamic dissociation constant KD), real-time assay systems (LigandTracer Yellow/White for radioactivity and Green with Red/NIR + and NIR + + /IR detectors for fluorescence; Ridgeview Instruments AB, Sweden) were utilized. In a 100 mm petri dish, cells or tissue sections in medium (3–4 mL total volume), are located on one side, while the radioactive or fluorescent signal is detected on the opposite, elevated side. […]

stability in human serum = assay type: in vitro ADME; details: 37 °C; for degradation in human serum: four-hour time point; for fraction of intact tracer: human serum, after 24 h
Method: Stability testing in human serum (Sigma Aldrich, Darmstadt, Germany) was carried out by incubation of the ^67Ga-labeled radiotracer at 37 °C. After defined time points an aliquot was withdrawn and the serum proteins precipitated, by dilution with “supersol” (20% v/v ethanol, 5% v/v 5 mM EDTA, 0.5% v/v Triton X-100, 0.1% m/v saponin in aqueous solution). After centrifugation, the supernatant was analyzed by radio-HPLC.

| Ki [1] [nM] | IC50 [2] [nM] | faster association with fluorescent compared to radioactive detection [3] | faster dissociation with fluorescent compared to radioactive detection [3] | ratio hFAP-HT1080/muscle fluorescence ([4]; 120 min post injection) | ratio hFAP/WT-HT1080 tumor fluorescence ([4]; 120 min post injection) | fluorescence in hFAP-HT1080 tumor higher than in WT-HT1080 tumor or muscle ([4]; 24 h post injection) [%] | reduction of fluorescence signal in hFAP-HT1080 tumor ([4]; after 24 h post injection) [%] | WT-HT1080 to muscle ratio ([4]; over the imaging period) | time to plateau of fluorescence in hFAP-HT1080 tumor ([4]; post injection) | Compound | Kd [5] [nM] | degradation in human serum (stability in human serum) | fraction of intact tracer (stability in human serum) [%] |
| --- | --- | --- | --- | --- | --- | --- | --- | --- | --- | --- | --- | --- | --- |
| 0.343 ± 0.153 | > 10000 | ~ 50% | ~ 30% | ~ 1.9 | ~ 2.2 | 60 | 43 | ~ 1 | ~ 20 min | CN(CCCN1CCN(C(=O)[C@H](CCCCNC(=O)CC[C@H](C(=O)O)N2CCN(CC(=O)O)CCN(CC(=O)O)CC2)NC(=O)CCOCCOCCOCCOCCNC(=O)CCCCCN2/C(=C/C=C3\CCCC(/C=C/C4=[N+](CCCCS(=O)(=O)[O-])c5ccc(S(=O)(=O)O)cc5C4(C)C)=C3Oc3ccc(S(=O)(=O)O)cc3)C(C)(C)c3cc(S(=O)(=O)O)ccc32)CC1)c1ccc2nccc(C(=O)NCC(=O)N3CC(F)(F)C[C@H]3C#N)c2c1 [NODAGA-FAP800] |  |  |  |
|  |  |  |  |  |  |  |  |  |  | CN(CCCN1CCN(C(=O)[C@H](CCCCNC(=O)CC[C@H](C(=O)[O-])N2CCN(CC(=O)[O-])CCN(CC(=O)[O-])CC2)NC(=O)CCOCCOCCOCCOCCNC(=O)CCCCC[N+]2=C(C=CC=CC=C3N(CCCS(=O)(=O)O)c4ccc(S(=O)(=O)O)cc4C3(C)C)C(C)(CCCS(=O)(=O)O)c3cc(S(=O)(=O)[O-])ccc32)CC1)c1ccc2nccc(C(=O)NCC(=O)N3CC(F)(F)C[C@H]3C#N)c2c1.[67Ga+3] (stereo partly shown) [[^67Ga]Ga-NODAGA-FAP647] | 0.025 | no degradation | 56 |
|  |  |  |  |  |  |  |  |  |  | CN(CCCN1CCN(C(=O)[C@H](CCCCNC(=O)CC[C@H](C(=O)[O-])N2CCN(CC(=O)[O-])CCN(CC(=O)[O-])CC2)NC(=O)CCOCCOCCOCCOCCNC(=O)CCCCCN2C(=CC=C3CCCC(C=CC4=[N+](CCCCS(=O)(=O)[O-])c5ccc(S(=O)(=O)O)cc5C4(C)C)=C3Oc3ccc(S(=O)(=O)O)cc3)C(C)(C)c3cc(S(=O)(=O)O)ccc32)CC1)c1ccc2nccc(C(=O)NCC(=O)N3CC(F)(F)C[C@H]3C#N)c2c1.[67Ga+3] [[^67Ga]Ga-NODAGA-FAP800] | 0.018 | no degradation | 22 |
